In patent publication US9260483B2, “Triazacyclononane-based phosphinate ligand and its use for molecular imaging” (TECHNISCHE UNIVERSITÄT MÜNCHEN, priority 2011, dated 2016):
Read-outs that look alike come from different tables or passages of the source.

Key:
αvβ3 integrin = molecular target: T1, αvβ3 integrin (Homo sapiens, UniProt P05106+P06756); assay: In vitro binding assay: displacement of 125I-echistatin on M21 human melanoma cells
T1 construct: endogenous in cells; host or cells: M21 human melanoma cells
T1 sequence (P06756 31-889 limits assumed): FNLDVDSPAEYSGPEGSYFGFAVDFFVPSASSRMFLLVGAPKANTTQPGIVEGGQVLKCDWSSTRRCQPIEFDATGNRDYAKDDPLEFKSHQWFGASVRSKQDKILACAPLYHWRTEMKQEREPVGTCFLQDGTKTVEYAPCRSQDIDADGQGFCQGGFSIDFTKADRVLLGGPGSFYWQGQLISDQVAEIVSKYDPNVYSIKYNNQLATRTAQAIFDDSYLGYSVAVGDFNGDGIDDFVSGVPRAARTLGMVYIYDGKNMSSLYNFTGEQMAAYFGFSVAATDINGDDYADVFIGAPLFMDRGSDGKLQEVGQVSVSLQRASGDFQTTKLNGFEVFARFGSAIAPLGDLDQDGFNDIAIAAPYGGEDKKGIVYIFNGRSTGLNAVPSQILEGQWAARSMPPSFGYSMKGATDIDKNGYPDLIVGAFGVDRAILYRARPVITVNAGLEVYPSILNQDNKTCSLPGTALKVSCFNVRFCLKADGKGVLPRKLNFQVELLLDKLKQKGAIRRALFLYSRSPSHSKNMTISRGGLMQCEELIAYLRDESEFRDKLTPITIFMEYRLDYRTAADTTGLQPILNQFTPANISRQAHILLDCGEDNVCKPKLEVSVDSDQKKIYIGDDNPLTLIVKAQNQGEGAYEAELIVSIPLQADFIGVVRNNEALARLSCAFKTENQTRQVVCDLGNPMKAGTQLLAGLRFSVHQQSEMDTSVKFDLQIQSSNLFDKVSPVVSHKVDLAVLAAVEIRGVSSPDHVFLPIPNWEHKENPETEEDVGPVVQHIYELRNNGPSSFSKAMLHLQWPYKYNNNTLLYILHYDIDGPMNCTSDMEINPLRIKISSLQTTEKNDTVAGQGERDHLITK
T1 sequence (P06756 891-1048 partner limits assumed): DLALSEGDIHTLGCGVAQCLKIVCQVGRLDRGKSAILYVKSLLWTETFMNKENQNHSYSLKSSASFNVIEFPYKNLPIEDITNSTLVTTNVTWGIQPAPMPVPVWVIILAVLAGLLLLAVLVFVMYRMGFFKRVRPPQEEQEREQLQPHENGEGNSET
T1 sequence (P05106 27-788): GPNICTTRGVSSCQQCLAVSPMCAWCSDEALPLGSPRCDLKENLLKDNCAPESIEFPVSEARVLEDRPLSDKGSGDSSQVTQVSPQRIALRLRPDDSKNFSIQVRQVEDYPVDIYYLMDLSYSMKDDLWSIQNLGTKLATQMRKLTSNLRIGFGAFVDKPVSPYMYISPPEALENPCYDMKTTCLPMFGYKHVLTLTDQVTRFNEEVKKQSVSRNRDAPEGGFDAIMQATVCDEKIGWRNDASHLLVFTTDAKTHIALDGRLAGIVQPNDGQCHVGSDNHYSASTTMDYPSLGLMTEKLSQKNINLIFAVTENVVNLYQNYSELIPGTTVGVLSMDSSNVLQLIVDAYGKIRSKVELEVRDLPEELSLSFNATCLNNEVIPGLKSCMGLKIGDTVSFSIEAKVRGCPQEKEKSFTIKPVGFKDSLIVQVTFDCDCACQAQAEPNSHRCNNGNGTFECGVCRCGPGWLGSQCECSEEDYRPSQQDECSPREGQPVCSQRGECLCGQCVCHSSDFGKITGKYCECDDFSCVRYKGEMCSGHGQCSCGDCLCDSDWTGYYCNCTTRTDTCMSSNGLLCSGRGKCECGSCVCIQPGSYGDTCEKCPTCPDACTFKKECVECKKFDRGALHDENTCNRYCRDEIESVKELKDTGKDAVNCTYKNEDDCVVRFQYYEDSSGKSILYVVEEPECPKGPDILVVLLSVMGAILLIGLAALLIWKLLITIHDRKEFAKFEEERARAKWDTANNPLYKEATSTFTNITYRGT

[1] = M21 cells, 125I-echistatin, 2 h room temperature, read-out: IC50

Compound | logP | IC50 (αvβ3 integrin; IC50 (nM)) [nM] | further results
19F-galacto-RGD [reference compound] |  |  | IC50 (αvβ3 integrin; [1]): 319 nM; log IC50 (αvβ3 integrin; logarithmic IC50 with logarithmic error, M21 cells, 125I-echistatin, 2 h room temperature): −6.45 ± 0.157
N=C(N)NCCC[C@@H]1NC(=O)[C@H](CCCCNC(=O)CCOCCOCCOCCOCCNC(=O)CCP(=O)(O)CN2CCN(CP(=O)(O)CCC(=O)NCCOCCOCCOCCOCCC(=O)NCCCC[C@@H]3NC(=O)[C@@H](Cc4ccccc4)NC(=O)[C@H](CC(=O)O)NC(=O)CNC(=O)[C@H](CCCNC(=N)N)NC3=O)CCN(CP(=O)(O)CCC(=O)NCCOCCOCCOCCOCCC(=O)NCCCC[C@@H]3NC(=O)[C@@H](Cc4ccccc4)NC(=O)[C@H](CC(=O)O)NC(=O)CNC(=O)[C@H](CCCNC(=N)N)NC3=O)CC2)NC(=O)[C@@H](Cc2ccccc2)NC(=O)[C@H](CC(=O)O)NC(=O)CNC1=O (single isomer, unassigned) [Ga-R3PEG4P9] | -3.9 ± 0.1 |  | 
N=C(N)NCCC[C@@H]1NC(=O)[C@H](CCCCNC(=O)CCP(=O)(O)CN2CCN(CP(=O)(O)CCC(=O)O)CCN(CP(=O)(O)CCC(=O)O)CC2)NC(=O)[C@@H](Cc2ccccc2)NC(=O)[C@H](CC(=O)O)NC(=O)CNC1=O [Compound R1P9] |  | 2890 | IC50 (αvβ3 integrin; log IC50): 2950 nM
N=C(N)NCCC[C@@H]1NC(=O)[C@H](CCCCNC(=O)CCP(=O)(O)CN2CCN(CP(=O)(O)CCC(=O)O)CCN(CP(=O)(O)CCC(=O)NCCCC[C@@H]3NC(=O)[C@@H](Cc4ccccc4)NC(=O)[C@H](CC(=O)O)NC(=O)CNC(=O)[C@H](CCCNC(=N)N)NC3=O)CC2)NC(=O)[C@@H](Cc2ccccc2)NC(=O)[C@H](CC(=O)O)NC(=O)CNC1=O [Compound R2P9] |  | 370 | 
CCN=c1cc2oc3cc(NCC)c(C)cc3c(-c3ccccc3C(=O)NCCCCCCNC(=O)CCP(=O)(O)CN3CCN(CP(=O)(O)CCC(=O)NCCCCC4NC(=O)[C@@H](Cc5ccccc5)NC(=O)[C@H](CC(=O)O)NC(=O)CNC(=O)[C@H](CCCNC(=N)N)NC4=O)CCN(CP(=O)(O)CCC(=O)NCCCC[C@@H]4NC(=O)[C@@H](Cc5ccccc5)NC(=O)[C@H](CC(=O)O)NC(=O)CNC(=O)[C@H](CCCNC(=N)N)NC4=O)CC3)c-2cc1C (some centres unmarked) [Compound R2RhoP9] |  | 92 | 
N=C(N)NCCC[C@@H]1NC(=O)[C@H](CCCCNC(=O)CC[C@H](NC(=O)CCP(=O)(O)CN2CCN(CP(=O)(O)CCC(=O)N[C@@H](CCC(=O)NCCCC[C@@H]3NC(=O)[C@@H](Cc4ccccc4)NC(=O)[C@H](CC(=O)O)NC(=O)CNC(=O)[C@H](CCCNC(=N)N)NC3=O)C(=O)O)CCN(CP(=O)(O)CCC(=O)N[C@@H](CCC(=O)NCCCC[C@@H]3NC(=O)[C@@H](Cc4ccccc4)NC(=O)[C@H](CC(=O)O)NC(=O)CNC(=O)[C@H](CCCNC(=N)N)NC3=O)C(=O)O)CC2)C(=O)O)NC(=O)[C@@H](Cc2ccccc2)NC(=O)[C@H](CC(=O)O)NC(=O)CNC1=O [Compound R3GlutP9] |  | 125 | 
N=C(N)NCCC[C@@H]1NC(=O)[C@H](CCCCNC(=O)CCCCCNC(=O)CC[PH](=O)CN2CCN(CP(=O)(O)CCC(=O)NCCCCCC(=O)NCCCC[C@@H]3NC(=O)[C@H](Cc4ccccc4)NC(=O)[C@H](CC(=O)O)NC(=O)CNC(=O)[C@H](CCCNC(=N)N)NC3=O)CCN(CP(=O)(O)CCC(=O)NCCCCCC(=O)NCCCC[C@@H]3NC(=O)[C@H](Cc4ccccc4)NC(=O)[C@H](CC(=O)O)NC(=O)CNC(=O)[C@H](CCCNC(=N)N)NC3=O)CC2)NC(=O)[C@H](Cc2ccccc2)NC(=O)[C@H](CC(=O)O)NC(=O)CNC1=O (some centres unmarked) [Compound R3HexP9] |  | 85 | 
N=C(N)NCCC[C@@H]1NC(=O)[C@H](CCCCNC(=O)CCOCCOCCOCCOCCOCCOCCOCCOCCNC(=O)CCP(=O)(O)CN2CCN(CP(=O)(O)CCC(=O)NCCOCCOCCOCCOCCOCCOCCOCCOCCC(=O)NCCCC[C@@H]3NC(=O)[C@@H](Cc4ccccc4)NC(=O)[C@H](CC(=O)O)NC(=O)CNC(=O)[C@H](CCCNC(=N)N)NC3=O)CCN(CP(=O)(O)CCC(=O)NCCOCCOCCOCCOCCOCCOCCOCCOCCC(=O)NCCCC[C@@H]3NC(=O)[C@@H](Cc4ccccc4)NC(=O)[C@H](CC(=O)O)NC(=O)CNC(=O)[C@H](CCCNC(=N)N)NC3=O)CC2)NC(=O)[C@@H](Cc2ccccc2)NC(=O)[C@H](CC(=O)O)NC(=O)CNC1=O [Compound R3PEG8P9] |  |  | IC50 (αvβ3 integrin; [1]): 50 nM
N=C(N)NCCC[C@@H]1NC(=O)[C@H](CCCCNC(=O)CCP(=O)(O)CN2CCN(CP(=O)(O)CCC(=O)O)CCN(CP(=O)(O)CCC(=O)O)CC2)NC(=O)[C@@H](Cc2ccccc2)NC(=O)[C@H](CC(=O)O)NC(=O)CNC1=O [Ga-R1P9] | -3.91 ± 0.11 |  | 
N=C(N)NCCC[C@@H]1NC(=O)[C@H](CCCCNC(=O)CCP(=O)(O)CN2CCN(CP(=O)(O)CCC(=O)O)CCN(CP(=O)(O)CCC(=O)NCCCC[C@@H]3NC(=O)[C@@H](Cc4ccccc4)NC(=O)[C@H](CC(=O)O)NC(=O)CNC(=O)[C@H](CCCNC(=N)N)NC3=O)CC2)NC(=O)[C@@H](Cc2ccccc2)NC(=O)[C@H](CC(=O)O)NC(=O)CNC1=O [Ga-R2P9] | -4.12 ± 0.06 |  | 
CCN=c1cc2oc3cc(NCC)c(C)cc3c(-c3ccccc3C(=O)NCCCCCCNC(=O)CCP(=O)(O)CN3CCN(CP(=O)(O)CCC(=O)NCCCC[C@@H]4NC(=O)[C@@H](Cc5ccccc5)NC(=O)[C@H](CC(=O)O)NC(=O)CNC(=O)[C@H](CCCNC(=N)N)NC4=O)CCN(CP(=O)(O)CCC(=O)NCCCC[C@@H]4NC(=O)[C@@H](Cc5ccccc5)NC(=O)[C@H](CC(=O)O)NC(=O)CNC(=O)[C@H](CCCNC(=N)N)NC4=O)CC3)c-2cc1C [Ga-R2RhoP9] | -1.27 ± 0.04 |  | 
N=C(N)NCCC[C@@H]1NC(=O)[C@H](CCCCNC(=O)CC[C@H](NC(=O)CCP(=O)(O)CN2CCN(CP(=O)(O)CCC(=O)N[C@@H](CCC(=O)NCCCC[C@@H]3NC(=O)[C@@H](Cc4ccccc4)NC(=O)[C@H](CC(=O)O)NC(=O)CNC(=O)[C@H](CCCNC(=N)N)NC3=O)C(=O)O)CCN(CP(=O)(O)CCC(=O)N[C@@H](CCC(=O)NCCCC[C@@H]3NC(=O)[C@@H](Cc4ccccc4)NC(=O)[C@H](CC(=O)O)NC(=O)CNC(=O)[C@H](CCCNC(=N)N)NC3=O)C(=O)O)CC2)C(=O)O)NC(=O)[C@@H](Cc2ccccc2)NC(=O)[C@H](CC(=O)O)NC(=O)CNC1=O [Ga-R3GlutP9] | -4.03 ± 0.12 |  | 
N=C(N)NCCC[C@@H]1NC(=O)[C@H](CCCCNC(=O)CCCCCNC(=O)CCP(=O)(O)CN2CCN(CP(=O)(O)CCC(=O)NCCCCCC(=O)NCCCC[C@@H]3NC(=O)[C@@H](Cc4ccccc4)NC(=O)[C@H](CC(=O)O)NC(=O)CNC(=O)[C@H](CCCNC(=N)N)NC3=O)CCN(CP(=O)(O)CCC(=O)NCCCCCC(=O)NCCCC[C@@H]3NC(=O)[C@@H](Cc4ccccc4)NC(=O)[C@H](CC(=O)O)NC(=O)CNC(=O)[C@H](CCCNC(=N)N)NC3=O)CC2)NC(=O)[C@@H](Cc2ccccc2)NC(=O)[C@H](CC(=O)O)NC(=O)CNC1=O [Ga-R3HexP9] | -3.99 ± 0.13 |  | 
Echistatin [reference compound] |  |  | log IC50 (αvβ3 integrin): −9.01 ± 0.033; IC50 (αvβ3 integrin; read-out: IC50): 0.98 nM
